Measured values reported in EP4166651A1, “METHODS AND COMPOSITION TO INCREASE CELLULAR GLUTATHIONE LEVEL” (priority 2021, dated 2023).
Where a SMILES comes first, the peptide text is derived from it. Bridges are numbered along the chain shown (N, C = ends). Roman numbers before positions name the chains, in order.

Legend:
[1] = system: human bone marrow stromal cells, mesenchymal stem cells (MSC)
Protocol: The assay was performed with human bone marrow stromal cells, mesenchymal stem cells (MSC). In a first step, the cells were seeded in a white 96-well cell culture plate and incubated for 24 h in a CO2-Incubator (37°C, 5% CO2, 95% humidity) at a cell density of 5.000 cells/well. After the resting time of 24 hours, diluted samples containing test compounds were added to the plate in equal volumes of 50 µl to reach the desired concentrations of interest and a final volume of 100 µl per well. Samples of L-cysteine were compared to Cys-peptides and each sample was tested in triplicates. The control was rested in medium without sample. […] The viability was determined based on the quantification of the ATP present in the cells per well. Through the luminescence detection of luciferase using a multiplate reader the ATP amount was measured and quantified. Resulting luminescence signal of samples was normalized to the signal of control cells. […] The viability was determined based on the quantification of the ATP present in the cells per well. Through the luminescence detection of luciferase using a multiplate reader the ATP amount was measured and quantified. Resulting luminescence signal of samples was normalized to the signal of control cells.

[2] = system: Chinese hamster ovary cells (CHO-K1); assay: In vitro Glutathione assay (GSH/GSSG-Glo) after H2O2-induced oxidative stress; format: cell-based; conditions: 24 h pre-incubation or constant incubation, 100 µM H2O2 for 20 min, with and without FBS, compared to medium control not treated with H2O2
Protocol: The addition of Cys-peptides and mixtures of Cys-peptides with L-cysteine and L-cystine to the cell culture medium was evaluated regarding their influence on the intracellular glutathione level. Oxidative stress was simulated by the addition of hydrogen peroxide solution. The assay was performed with Chinese hamster ovary cells (CHO-K1). […] In relation to the oxidative stress conditions the cells were pre-incubated or constantly incubated with Cys-peptide samples. […] The samples (Ala-Cys)2 and (Lys-Cys)2 were dissolved in culture medium, either containing 10% fetal bovine serum (FBS) or medium without FBS, to perform the assay setup in presence and absence of FBS during the stress phase. […] This leads to luminescence signals which were measured in a multiplate reader. To calculate the GSH concentrations, a dilution series of a glutathione standard was performed, and luminescence signals measured. Relative luminescence signals were plotted against GSH concentrations. After subtracting the background signals, GSH concentration in samples was calculated based on the linear standard curve. […] After luminescence signals were measured, the intracellular glutathione concentration of cells incubated with Cys-peptides and mixtures and treated with 100 µM H2O2 were compared to a medium control, which was not treated with H2O2.

[3] = cell culture media relevant pH of about 7; cited from earlier work

Row | SMILES | viability of MSCs [1] | intracellular glutathione level [2] | solubility [3]
1 | C[C@H](N)C(=O)N[C@@H](CSSC[C@H](NC(=O)[C@H](C)N)C(=O)O)C(=O)O [(Ala-Cys)2, N,N'-di-L-alanyl-L-cystine] (I: H-Ala-Cys-OH / II: H-Ala-Cys-OH; disulfide I:2-II:2) | does not have a negative effect on the viability | – | –
2 | N[C@@H](CS)C(=O)O [L-Cysteine] | negatively affects viability | increase intracellular glutathione concentration | –
3 | N[C@@H](CSSC[C@H](N)C(=O)O)C(=O)O [cystine, L-cystine] | – | – | around 1 mM
